Key:
Conditions in all cases: incubation time: 72 h
[1] = test system: MFM-223; assay: normalised response (% of control), CellTox Green; higher = less cell death (100 = DMSO, 0 = benzethonium chloride kill control)
In short: (§1)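 The table gives the normalised signal for a single concentration in each entry. Breast cancer cell lines were seeded (20 µl suspension) into 384-well plates holding compound at 5 concentrations in 10-fold steps over a compound-specific 10,000-fold range and incubated 72 h, then read for CellTox Green fluorescence (485/520 nm) and CellTiter-Glo luminescence. Normalisation on each plate used 0.1 % DMSO (100) and a positive kill control (0).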

[2] = test system: DU-4475; assay: as above
In short: as §1

[3] = test system: MCF-10A; assay: as above
In short: as §1

[4] = test system: BT-474; assay: as above
In short: as §1

[5] = test system: HCC1143; assay: as above
In short: as §1

[6] = test system: CAL-85-1; assay: as above
In short: as §1

[7] = test system: HCC1937; assay: as above
In short: as §1

[8] = test system: CAL-148; assay: as above
In short: as §1

[9] = test system: Hs578T; assay: as above
In short: as §1

[10] = test system: BT-549; assay: as above
In short: as §1

[11] = test system: MDA-MB-436; assay: as above
In short: as §1

[12] = test system: MDA-MB-468; assay: as above
In short: as §1

[13] = test system: CAL-51; assay: as above
In short: as §1

[14] = test system: MDA-MB-231; assay: as above
In short: as §1

[15] = test system: HCC1599; assay: as above
In short: as §1

[16] = test system: HDQ-P1; assay: as above
In short: as §1

[17] = test system: MDA-MB-453; assay: as above
In short: as §1

[18] = test system: CAL-120; assay: as above
In short: as §1

[19] = test system: MFM-223; assay: normalised response (% of control), CellTiter-Glo; higher = more viable cells (100 = DMSO, 0 = benzethonium chloride kill control)
In short: as §1

[20] = test system: DU-4475; assay: as above
In short: as §1

[21] = test system: MCF-10A; assay: as above
In short: as §1

[22] = test system: BT-474; assay: as above
In short: as §1

[23] = test system: HCC1143; assay: as above
In short: as §1

[24] = test system: CAL-85-1; assay: as above
In short: as §1

[25] = test system: HCC1937; assay: as above
In short: as §1

[26] = test system: CAL-148; assay: as above
In short: as §1

[27] = test system: Hs578T; assay: as above
In short: as §1

[28] = test system: BT-549; assay: as above
In short: as §1

[29] = test system: MDA-MB-436; assay: as above
In short: as §1

[30] = test system: MDA-MB-468; assay: as above
In short: as §1

[31] = test system: CAL-51; assay: as above
In short: as §1

[32] = test system: SK-BR-3; assay: as above
In short: as §1

[33] = test system: MDA-MB-231; assay: as above
In short: as §1

[34] = test system: HCC1599; assay: as above
In short: as §1

[35] = test system: HDQ-P1; assay: as above
In short: as §1

[36] = test system: MDA-MB-453; assay: as above
In short: as §1

[37] = test system: CAL-120; assay: as above
In short: as §1

[38] = test system: MFM-223; assay: normalised response (% of control), CellTiter-Glo; higher = more viable cells (100 = DMSO, 0 = benzethonium chloride kill control); remark: listed apart in the source
Experimental: (§2)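 DSRT, 72 h incubation, CellTox Green / CellTiter-Glo readout. Signal is normalised to DMSO and benzethonium chloride controls. Value is the normalised response at the highest dose.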

[39] = test system: DU-4475; assay: as above; remark: listed apart in the source
Experimental: as §2

[40] = test system: MCF-10A; assay: as above; remark: listed apart in the source
Experimental: as §2

[41] = test system: BT-474; assay: as above; remark: listed apart in the source
Experimental: as §2

[42] = test system: HCC1143; assay: as above; remark: listed apart in the source
Experimental: as §2

[43] = test system: CAL-85-1; assay: as above; remark: listed apart in the source
Experimental: as §2

[44] = test system: HCC1937; assay: as above; remark: listed apart in the source
Experimental: as §2

[45] = test system: CAL-148; assay: as above; remark: listed apart in the source
Experimental: as §2

[46] = test system: Hs578T; assay: as above; remark: listed apart in the source
Experimental: as §2

[47] = test system: BT-549; assay: as above; remark: listed apart in the source
Experimental: as §2

[48] = test system: MDA-MB-436; assay: as above; remark: listed apart in the source
Experimental: as §2

[49] = test system: MDA-MB-468; assay: as above; remark: listed apart in the source
Experimental: as §2

[50] = test system: CAL-51; assay: as above; remark: listed apart in the source
Experimental: as §2

[51] = test system: SK-BR-3; assay: as above; remark: listed apart in the source
Experimental: as §2

[52] = test system: MDA-MB-231; assay: as above; remark: listed apart in the source
Experimental: as §2

[53] = test system: HCC1599; assay: as above; remark: listed apart in the source
Experimental: as §2

[54] = test system: HDQ-P1; assay: as above; remark: listed apart in the source
Experimental: as §2

[55] = test system: MDA-MB-453; assay: as above; remark: listed apart in the source
Experimental: as §2

[56] = test system: CAL-120; assay: as above; remark: listed apart in the source
Experimental: as §2

Structure (SMILES)	normalised response [1] [%]	normalised response [2] [%]	normalised response [3] [%]	normalised response [4] [%]	normalised response [5] [%]	normalised response [6] [%]	normalised response [7] [%]	normalised response [8] [%]	normalised response [9] [%]	normalised response [10] [%]	normalised response [11] [%]	normalised response [12] [%]	normalised response [13] [%]	normalised response [14] [%]	normalised response [15] [%]	normalised response [16] [%]	normalised response [17] [%]	normalised response [18] [%]	normalised response [19] [%]	normalised response [20] [%]	also measured
O=C(Cc1ccc(-c2ccc(OCCN3CCOCC3)cc2)cn1)NCc1ccccc1 [KX2-391] (100 nM)	75.7	95.7	55.3	85.1	109	30.9	98.5	65.5	-25.9	78.5	76.9	-39.4	35.6	51.3	93.7	80.7	101	87.3	63.1	49.4	normalised response [21]: 61%; normalised response [22]: 66%; normalised response [23]: 44.7%; normalised response [24]: 31.8%; normalised response [25]: 73.2%; normalised response [26]: 40.6%; normalised response [27]: 29.9%; normalised response [28]: 50.1%; normalised response [29]: 39.5%; normalised response [30]: 44.6%; normalised response [31]: 32.2%; normalised response [32]: 19.5%; normalised response [33]: 64.4%; normalised response [34]: 32.3%; normalised response [35]: 72.6%; normalised response [36]: 72.7%; normalised response [37]: 67.8%
CCN(CC)CCCC(C)Nc1c2ccc(Cl)cc2nc2ccc(OC)cc12 (configuration not stated) [Mepacrine] (500 nM)	96.9	108	85.1	103	109	104	111	74.7	63.5	103	82.7	109	66.9	99.1	93.8	85.1	104	-33	97.2	99.8	normalised response [21]: 105%; normalised response [22]: 98.9%; normalised response [23]: 104%; normalised response [24]: 103%; normalised response [25]: 98.4%; normalised response [26]: 86.1%; normalised response [27]: 98.7%; normalised response [28]: 113%; normalised response [29]: 106%; normalised response [30]: 93.1%; normalised response [31]: 64%; normalised response [32]: 90.8%; normalised response [33]: 103%; normalised response [34]: 101%; normalised response [35]: 104%; normalised response [36]: 101%; normalised response [37]: 44.1%
O=C(O)C(=O)O.[NH-][C@@H]1CCCC[C@H]1[NH-].[Pt+2] [Oxaliplatin] (10000 nM)	93	96.8		96.6	68.5	128	92.8		107	108	62	124	79.2	93.5	98.3		98.6	99.1			normalised response [38]: 86.9%; normalised response [39]: 86.5%; normalised response [40]: 86.4%; normalised response [41]: 100%; normalised response [42]: 99.8%; normalised response [43]: 102%; normalised response [44]: 98.4%; normalised response [45]: 85.5%; normalised response [46]: 97%; normalised response [47]: 101%; normalised response [48]: 98.4%; normalised response [49]: 97.2%; normalised response [50]: 91.5%; normalised response [51]: 91.9%; normalised response [52]: 91.5%; normalised response [53]: 97.3%; normalised response [54]: 102%; normalised response [55]: 89.5%; normalised response [56]: 106%
C=CCc1cccc(/C=N/NC(=O)CN2CCN(Cc3ccccc3)CC2)c1O [PAC-1] (100 nM)	98.7	102	75.2	103	110	99.7	105	107	84.3	101	83.5	79.1	98.2	116	99.4	100	107	106	102	105	normalised response [21]: 111%; normalised response [22]: 102%; normalised response [23]: 101%; normalised response [24]: 103%; normalised response [25]: 97.1%; normalised response [26]: 103%; normalised response [27]: 104%; normalised response [28]: 104%; normalised response [29]: 99.3%; normalised response [30]: 99.4%; normalised response [31]: 91.8%; normalised response [32]: 108%; normalised response [33]: 107%; normalised response [34]: 118%; normalised response [35]: 99.6%; normalised response [36]: 102%; normalised response [37]: 103%
CNC(=O)c1cc(Oc2ccc(NC(=O)Nc3cc(C(C)(C)C)nn3-c3ccc4ncccc4c3)c(F)c2)ccn1 [Rebastinib] (10 nM)	103	101	95.4	98.3	86.8	113	94.3	84.8	106	107	85	70.1	101	105	98.2	57	98.2	101	96.8	109	normalised response [21]: 114%; normalised response [22]: 102%; normalised response [23]: 104%; normalised response [24]: 98.7%; normalised response [25]: 102%; normalised response [26]: 105%; normalised response [27]: 104%; normalised response [28]: 109%; normalised response [29]: 106%; normalised response [30]: 94.7%; normalised response [31]: 90.6%; normalised response [32]: 101%; normalised response [33]: 92%; normalised response [34]: 98.3%; normalised response [35]: 107%; normalised response [36]: 97.1%; normalised response [37]: 105%
